Laboratory results: patent publication US20240342292A1, “Compounds for the Degradation of EGFR Kinase” (BeiGene Switzerland GmbH, priority 2021, published 2024)

Legend:
Del19/T790M/C797S EGFR = assay: EGFR degradation HTRF assay in H1975-clone #28 (DTC) cells; format: cell-based; conditions: H1975 # 28 DTC (Del19/T790M/C797S), 16h treatment; for DC50: HTRF; for Dmax (%): maximum percentage of degradation
Outline: (§1)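 Each homozygous H1975 clone was dosed for 16 h at 37 °C with an 8-dose, 5-fold series (top 10 uM, 0.2% DMSO). An HTRF antibody pair then measured EGFR in lysates, and a sigmoidal fit of percent inhibition gave DC50.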

L858R/T790M/C797S EGFR = target: T1, L858R/T790M/C797S EGFR (Homo sapiens, UniProt P00533, C797S/L858R/T790M); assay: EGFR degradation HTRF assay in H1975-clone #25 (LTC) cells; format: cell-based; conditions: 16h treatment; for DC50: H1975 # 25-LTC (L858R/T790M/C797S), HTRF; for Dmax: NCI-H1975, H1975 # 25-LTC (L858R/T790M/C797S), maximum percentage of degradation
T1 construct: expressed in transfected cells; host or cells: H1975 clone #25 (lentiviral over-expression, endogenous EGFR knocked out by sgRNA)
Outline: as §1

T1 sequence (P00533 25-1210 T790M/C797S/L858R): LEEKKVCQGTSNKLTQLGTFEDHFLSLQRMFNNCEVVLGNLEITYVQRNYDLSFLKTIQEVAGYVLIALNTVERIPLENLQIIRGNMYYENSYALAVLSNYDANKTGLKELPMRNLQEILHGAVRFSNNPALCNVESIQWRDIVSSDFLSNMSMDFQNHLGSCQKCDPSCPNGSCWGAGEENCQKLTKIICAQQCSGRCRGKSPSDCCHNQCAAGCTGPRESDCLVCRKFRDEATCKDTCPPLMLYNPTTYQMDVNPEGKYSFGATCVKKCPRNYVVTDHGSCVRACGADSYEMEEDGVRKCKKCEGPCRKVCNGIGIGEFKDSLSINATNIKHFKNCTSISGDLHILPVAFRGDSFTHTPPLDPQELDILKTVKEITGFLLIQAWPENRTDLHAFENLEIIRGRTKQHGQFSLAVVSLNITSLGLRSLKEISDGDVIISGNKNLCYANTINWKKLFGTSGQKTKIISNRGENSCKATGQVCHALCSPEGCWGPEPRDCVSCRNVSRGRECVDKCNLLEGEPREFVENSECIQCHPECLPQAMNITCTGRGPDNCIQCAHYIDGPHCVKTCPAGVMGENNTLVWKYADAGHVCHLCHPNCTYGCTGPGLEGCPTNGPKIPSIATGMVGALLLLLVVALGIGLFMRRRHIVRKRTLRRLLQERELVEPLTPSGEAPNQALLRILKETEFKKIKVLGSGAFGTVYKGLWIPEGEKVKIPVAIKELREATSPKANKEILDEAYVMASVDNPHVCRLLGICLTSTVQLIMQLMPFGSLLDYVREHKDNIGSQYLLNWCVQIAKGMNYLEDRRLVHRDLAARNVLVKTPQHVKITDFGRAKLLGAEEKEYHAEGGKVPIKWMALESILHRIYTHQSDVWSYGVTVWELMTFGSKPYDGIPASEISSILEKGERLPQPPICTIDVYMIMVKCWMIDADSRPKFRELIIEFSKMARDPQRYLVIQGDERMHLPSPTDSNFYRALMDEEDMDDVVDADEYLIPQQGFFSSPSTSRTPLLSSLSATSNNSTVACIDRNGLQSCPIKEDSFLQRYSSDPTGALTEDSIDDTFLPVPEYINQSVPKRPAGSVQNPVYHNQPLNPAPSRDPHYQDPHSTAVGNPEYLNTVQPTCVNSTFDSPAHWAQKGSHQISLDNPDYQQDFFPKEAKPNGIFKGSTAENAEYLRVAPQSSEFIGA

With `Cc1cc2cc(n1)-c1cnn(C)c1OCCC[C@@H](C)CN1/C(=N/C2=O)Nc2ccc(C(=O)N(C)[C@H]3CCN(CCc4cc(F)c([C@H]5CCC(=O)NC5=O)c(F)c4)CC3(F)F)cc21` [Example 251, (R,E)-N—((S)-1-(4-((R)-2,6-dioxopiperidin-3-yl)-3,5-difluorophenethyl)-3,3-difluoropiperidin-4-yl)-N,1^1,2^6,7-tetramethyl-3-oxo-5^2,5^3-dihydro-1^1H,5^1H-11-oxa-4-aza-5(2,1)-benzo[d]imidazola-2(2,4)-pyridina-1(4,5)-pyrazolacycloundecaphane-5^6-carboxamide] the DC50 (Del19/T790M/C797S EGFR) was 0.611 nM, the “Dmax (%)” value (Del19/T790M/C797S EGFR) was 80.86% and the DC50 (L858R/T790M/C797S EGFR) was 0.888 nM. The Dmax (L858R/T790M/C797S EGFR) was 85.5%.
`Cc1cc2cc(n1)-c1cnn(C)c1OCCC[C@@H](C)CN1/C(=N/C2=O)Nc2ccc(C(=O)N(C)[C@H]3CCN(CCc4cc(F)c([C@H]5CCC(=O)NC5=O)c(F)c4)C[C@@H]3F)cc21` [Example 247, (R,E)-N-((3S,4S)-1-(4-((R)-2,6-dioxopiperidin-3-yl)-3,5-difluorophenethyl)-3-fluoropiperidin-4-yl)-N,1^1,2^6,7-tetramethyl-3-oxo-5^2,5^3-dihydro-1^1H,5^1H-11-oxa-4-aza-5(2,1)-benzo[d]imidazola-2(2,4)-pyridina-1(4,5)-pyrazolacycloundecaphane-5^6-carboxamide] was tested, and the DC50 (Del19/T790M/C797S EGFR) was 0.611 nM, the “Dmax (%)” value (Del19/T790M/C797S EGFR) was 87.12% and the DC50 (L858R/T790M/C797S EGFR) was 0.6 nM. It also gave a Dmax (L858R/T790M/C797S EGFR) of 92.5%.
`Cc1cc2cc(n1)-c1cnn(C)c1OCCC[C@@H](C)CN1/C(=N/C2=O)Nc2ccc(C(=O)N(C)C3CCN(C4CN(c5cc(F)c([C@H]6CCC(=O)NC6=O)c(F)c5)C4)CC3)cc21` [Example 290, (R,E)-N-(1-(1-(4-((R)-2,6-dioxopiperidin-3-yl)-3,5-difluorophenyl)azetidin-3-yl)piperidin-4-yl)-N,1′,2^6,7-tetramethyl-3-oxo-5^2,5′-dihydro-1^1H,5^1H-11-oxa-4-aza-5(2,1)-benzo[d]imidazola-2(2,4)-pyridina-1(4,5)-pyrazolacycloundecaphane-5^6-carboxamide] was tested, and the DC50 (Del19/T790M/C797S EGFR) was 0.64 nM, the “Dmax (%)” value (Del19/T790M/C797S EGFR) was 80.73% and the DC50 (L858R/T790M/C797S EGFR) was 0.644 nM. The Dmax (L858R/T790M/C797S EGFR) was 89.1%.
For `Cc1cc2cc(n1)-c1cnn(C)c1OCCC[C@@H](C)CN1/C(=N/C2=O)Nc2ccc(C(=O)N(C)[C@@H]3CCCN(CCc4cc(F)c([C@H]5CCC(=O)NC5=O)c(F)c4)CC3)cc21` [Example 292, (R,E)-N—((R)-1-(4-((R)-2,6-dioxopiperidin-3-yl)-3,5-difluorophenethyl)azepan-4-yl)-N,1^1,2^6,7-tetra methyl-3-oxo-5^2,5^3-dihydro-1^1H,5^1H-11-oxa-4-aza-5(2,1)-benzo[d]imidazola-2(2,4)-pyridina-1(4,5)-pyrazolacycloundecaphane-5^6-carboxamide], the DC50 (Del19/T790M/C797S EGFR) was 0.608 nM, the “Dmax (%)” value (Del19/T790M/C797S EGFR) was 85.48% and the DC50 (L858R/T790M/C797S EGFR) was 0.514 nM. It also gave a Dmax (L858R/T790M/C797S EGFR) of 89.4%.
For `Cc1cc2cc(n1)-c1cnn(C)c1OCCC[C@@H](C)CN1/C(=N/C2=O)Nc2ccc(C(=O)N(C)CCN3CCN(c4cc(F)c([C@H]5CCC(=O)NC5=O)c(F)c4)CC3)cc21` [Example 280, (R,E)-N-(2-(4-(4-((R)-2,6-dioxopiperidin-3-yl)-3,5-difluorophenyl)piperazin-1-yl)ethyl)-N,1^1,2^6,7-tetramethyl-3-oxo-5^2,5^3-dihydro-1^1H,5^1H-11-oxa-4-aza-5(2,1)-benzo[d]imidazola-2(2,4)-pyridina-1(4,5)-pyrazolacycloundecaphane-5^6-carboxyamide], the DC50 (Del19/T790M/C797S EGFR) was 0.657 nM, the “Dmax (%)” value (Del19/T790M/C797S EGFR) was 77.24% and the DC50 (L858R/T790M/C797S EGFR) was 0.44 nM. The Dmax (L858R/T790M/C797S EGFR) was 88.5%.
